Reference: paper PMC3530924 (Bioorganic & medicinal chemistry, 2010)
Where two headings read alike, the source gives them in different places.

Key:
[1] = molecular target: T1, CT-L activity of purified rabbit 20S proteasome (Oryctolagus cuniculus, UniProt G1SU71+G1T4Q9); test: Fluorometric assay of CT-L proteolytic activity of purified 20S proteasome; type: biochemical
T1 sequence (G1T4Q9 60-263): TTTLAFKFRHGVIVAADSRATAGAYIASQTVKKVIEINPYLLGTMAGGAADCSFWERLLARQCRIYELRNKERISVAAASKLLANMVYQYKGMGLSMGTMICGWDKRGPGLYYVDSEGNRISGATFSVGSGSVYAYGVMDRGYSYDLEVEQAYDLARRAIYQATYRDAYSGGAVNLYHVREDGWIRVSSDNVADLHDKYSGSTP
T1 sequence (G1SU71 29-241): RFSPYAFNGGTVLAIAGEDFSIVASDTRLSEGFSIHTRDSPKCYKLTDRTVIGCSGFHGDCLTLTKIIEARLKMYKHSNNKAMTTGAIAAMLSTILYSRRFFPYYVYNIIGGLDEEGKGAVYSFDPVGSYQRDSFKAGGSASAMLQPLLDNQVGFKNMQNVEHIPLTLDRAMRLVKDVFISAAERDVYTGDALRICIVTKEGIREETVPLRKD

[2] = system: CT-L activity of rabbit 20S proteasome; test: Dialysis; type: biochemical; conditions: compounds 10 µM; for inhibition of CT-L activity of the 20S proteasome in the absence of dialysis: 3 nM rabbit 20S proteasome, 30 min pre-incubation, no dialysis; for time of dialysis at which CT-L activity started to recover: dialysis at 4 °C against assay buffer
[3] = system: purified Calpain; test: Inhibition of purified Calpain; type: biochemical; conditions: read-out: IC50 purified Calpain; data not reported in the paper
[4] = system: MCF-7 cells; conditions: read-out: IC50 cell viability; cited from earlier work
[5] = system: human breast and lung tumors implanted as xenografts; conditions: nude mice; cited from earlier work
[6] = system: cancer cell lines derived from prostate, lung and multiple myeloma; conditions: cited from earlier work
[7] = system: primary cells derived from patients with multiple myeloma; conditions: cited from earlier work
[8] = read-out: In vitro IC50 CT-L activity, purified rabbit 20S proteasome, Suc-Leu-Leu-Val-Tyr-AMC, 1 hour at 37 °C, pH 7.6, tested in triplicate at least twice

Q: For “4-(6-amino-3-chloro-1,4-dioxo-1,4-dihydronaphthalen-2-ylamino)-N- (pyridin-2-yl)benzenesulfonamide and 4-(7-amino-3-chloro-1,4-dioxo-1,4-dihydronaphthalen-2-ylamino)- N-(pyridin-2-yl)benzenesulfonamide [Compound 8]”, which “inhibitory activity in the in vitro enzymatic assay” value ([1]; CT-L, mixtures of isomers) is on record?
A: did not lead to any appreciable inhibitory activities

Q: For `O=C1C=CC(=O)c2ccccc21` [1,4-naphthoquinone], which IC50 [1] is on record?
A: > 100 µM

Q: With `O=C1C(Cl)=C(Cl)C(=O)c2ccccc21` [2,3-dichloronaphthoquinone] as the compound, how does the IC50 [1, 8] read?
A: > 100 µM

Q: With `CC1=CC(=O)c2ccccc2C1=O` [2-methyl-1,4-naphthoquinone] as the compound, how does the IC50 [1] read?
A: > 100 µM

Q: For `CC(C)C[C@H](NC(=O)[C@H](Cc1ccccc1)NC(=O)c1cnccn1)B(O)O` [Bortezomib, reference compound], which “inhibition of CT-L activity of the 20S proteasome in the absence of dialysis” value [2] is on record?
A: 99%

Q: And the “time of dialysis at which CT-L activity started to recover” value [2]?
A: 4 h

Q: Which IC50 [1] does the source give for `COc1cnc(NS(=O)(=O)c2ccc(NC3=C(Cl)C(=O)c4ccccc4C3=O)cc2)nc1` [Compound 2e, 4-(3-Chloro-1,4-dioxo-1,4-dihydronaphthalen-2-ylamino)-N-(5-methoxypyrimidin-2-yl)benzenesulfonamide] here?
A: 100 µM

Q: Which IC50 [1] does the source give for `COc1cc(NS(=O)(=O)c2ccc(NC3=C(Cl)C(=O)c4ccccc4C3=O)cc2)nc(OC)n1` [Compound 2i, 4-(3-Chloro-1,4-dioxo-1,4-dihydronaphthalen-2-ylamino)-N-(2,6-dimethoxypyrimidin-4-yl)-benzenesulfonamide] here?
A: 100 µM

Q: With `CC1=C(Nc2ccc(S(=O)(=O)Nc3ccccn3)cc2)C(=O)c2ccccc2C1=O` [Compound 2k, 4-(3-Methyl-1,4-dioxo-1,4-dihydronaphthalen-2-ylamino)-N-(pyridin-2-yl)benzenesulfonamide] as the compound, how does the IC50 [1] read?
A: > 100 µM

Q: For `CC1=C(Nc2ccc(S(=O)(=O)NC(=O)c3ccccc3)cc2)C(=O)c2ccccc2C1=O` [Compound 2l, N-(4-(3-methyl-1,4-dioxo-1,4-dihydronaphthalen-2-ylamino)phenylsulfonyl) benzamide], which IC50 [1] is on record?
A: > 100 µM

Q: With `COc1cnc(NS(=O)(=O)c2ccc(NC3=C(C)C(=O)c4ccccc4C3=O)cc2)nc1` [Compound 2m, N-(5-methoxypyrimidin-2-yl)-4-(3-methyl-1,4-dioxo-1,4-dihydronaphthalen-2-ylamino)-benzenesulfonamide] as the compound, how does the IC50 [1] read?
A: > 100 µM

Q: With `O=C(NS(=O)(=O)c1ccc(NC2=CC(=O)c3ccccc3C2=O)cc1)c1ccccc1` [Compound 2p, N-(4-(1,4-dioxo-1,4-dihydronaphthalen-2-ylamino)phenylsulfonyl)benzamide] as the compound, how does the IC50 [1] read?
A: > 100 µM

Q: With `Cc1cc(NS(=O)(=O)c2ccc(NC3=CC(=O)c4ccccc4C3=O)cc2)no1` [Compound 2q, 4-(1,4-Dioxo-1,4-dihydronaphthalen-2-ylamino)-N-(5-methylisoxazol-3-yl)benzenesulfonamide] as the compound, how does the IC50 [1] read?
A: > 100 µM

Q: With `O=C1C=C(Nc2ccc(S(=O)(=O)Nc3ccccn3)cc2)C(=O)c2ccccc21` [Compound 2r, 4-(1,4-Dioxo-1,4-dihydronaphthalen-2-ylamino)-N-(pyridin-2-yl)benzenesulfonamide] as the compound, how does the IC50 [1] read?
A: > 100 µM

Q: Which IC50 [1] does the source give for `NS(=O)(=O)c1ccc(NC2=C(Cl)C(=O)c3ccccc3C2=O)cc1` [Compound 2t, 4-(3-Chloro-1,4-dioxo-1,4-dihydronaphthalen-2-ylamino)benzenesulfonamide] here?
A: > 100 µM

Q: Which IC50 [1] does the source give for `O=C1C(Cl)=C(Nc2ccc(S(=O)(=O)Nc3ccc(Cl)cc3)cc2)C(=O)c2ccccc21` [Compound 2u, 4-(3-Chloro-1,4-dioxo-1,4-dihydronaphthalen-2-ylamino)-N-(4-chlorophenyl)benzenesulfonamide] here?
A: > 100 µM

Q: Which IC50 [1] does the source give for `O=C1C(Cl)=C(Nc2ccc(S(=O)(=O)Nc3ccc(F)cc3F)cc2)C(=O)c2ccccc21` [Compound 2v, 4-(3-Chloro-1,4-dioxo-1,4-dihydronaphthalen-2-ylamino)-N-(2,4-difluorophenyl)benzenesulfonamide] here?
A: > 100 µM

Q: Which IC50 [1] does the source give for `O=C1C(Cl)=C(Nc2ccc(S(=O)(=O)Nc3ccc(Cl)cc3Cl)cc2)C(=O)c2ccccc21` [Compound 2w, 4-(3-Chloro-1,4-dioxo-1,4-dihydronaphthalen-2-ylamino)-N-(2,4-dichlorophenyl)benzenesulfonamide] here?
A: > 100 µM

Q: With `CN(C1=C(Cl)C(=O)c2ccccc2C1=O)c1ccc(S(=O)(=O)Nc2ccccn2)cc1` [Compound 6a, 4-((3-Chloro-1,4-dioxo-1,4-dihydronaphthalen-2-yl)(methyl)amino)-N-(pyridin-2-yl) benzenesulfonamide] as the compound, how does the IC50 [1, 8] read?
A: > 100 µM

Q: With `CCN(C1=C(Cl)C(=O)c2ccccc2C1=O)c1ccc(S(=O)(=O)Nc2ccccn2)cc1` [Compound 6b, 4-((3-Chloro-1,4-dioxo-1,4-dihydronaphthalen-2-yl)(ethyl)amino)-N-(pyridin-2-yl) benzenesulfonamide] as the compound, how does the IC50 [1, 8] read?
A: > 100 µM

Q: With `O=C1C(Cl)=C(N(Cc2ccccc2)c2ccc(S(=O)(=O)Nc3ccccn3)cc2)C(=O)c2ccccc21` [Compound 6c, 4-(Benzyl(3-chloro-1,4-dioxo-1,4-dihydronaphthalen-2-yl)amino)-N-(pyridin-2-yl) benzenesulfonamide] as the compound, how does the IC50 [1, 8] read?
A: > 100 µM

Q: With `O=C1C(Cl)=C(N(Cc2ccc([N+](=O)[O-])cc2)c2ccc(S(=O)(=O)Nc3ccccn3)cc2)C(=O)c2ccccc21` [Compound 6d, 4-((3-Chloro-1,4-dioxo-1,4-dihydronaphthalen-2-yl)(4-nitrobenzyl)amino)-N-(pyridin-2-yl)benzenesulfonamide] as the compound, how does the IC50 [1] read?
A: > 100 µM

Q: With `O=C1C(Cl)=C(N(Cc2ccc3ccccc3c2)c2ccc(S(=O)(=O)Nc3ccccn3)cc2)C(=O)c2ccccc21` [Compound 6e, 4-((3-Chloro-1,4-dioxo-1,4-dihydronaphthalen-2-yl)(naphthalen-2-ylmethyl)amino)-N-(pyridin-2-yl)benzenesulfonamide] as the compound, how does the IC50 [1] read?
A: > 100 µM

Q: With `Cc1ccc(CN(C2=C(Cl)C(=O)c3ccccc3C2=O)c2ccc(S(=O)(=O)Nc3ccccn3)cc2)cc1` [Compound 6f, 4-((3-Chloro-1,4-dioxo-1,4-dihydronaphthalen-2-yl)(4-methylbenzyl)amino)-N-(pyridin-2-yl)benzenesulfonamide] as the compound, how does the IC50 [1] read?
A: > 100 µM

Q: For `O=C1C(Cl)=C(N(Cc2ccc(C(F)(F)F)cc2)c2ccc(S(=O)(=O)Nc3ccccn3)cc2)C(=O)c2ccccc21` [Compound 6g, 4-((3-Chloro-1,4-dioxo-1,4-dihydronaphthalen-2-yl)(4-(trifluoromethyl)benzyl)amino)-N-(pyridin-2-yl)benzenesulfonamide], which IC50 [1] is on record?
A: > 100 µM

Q: For `O=C1C(Cl)=C(Nc2ccc(S(=O)(=O)Nc3ccccn3)cc2)C(=O)c2ccccc21` [PI-083, 4-(3-Chloro-1,4-dioxo-1,4-dihydronaphthalen-2-ylamino)-N-(pyridin-2-yl)benzenesulfonamide], which IC50 [3] is on record?
A: > 30 µM

Q: And the “inhibition of CT-L activity of the 20S proteasome in the absence of dialysis” value [2]?
A: 88%

Q: What about the “time of dialysis at which CT-L activity started to recover” value [2] of the same compound?
A: 1 h

Q: And the IC50 [4]?
A: 2.31 ± 0.1 µM

Q: What about the “growth of human breast and lung tumor xenografts” value [5] of the same compound?
A: suppresses the growth

Q: What about the “apoptosis in cancer cell lines” value [6] of the same compound?
A: induces apoptosis

Q: What about the “proliferation and survival of primary cells” value [7] of the same compound?
A: efficient in inhibiting proliferation and survival

Q: Which IC50 [1] does the source give for `Nc1ccc(S(=O)(=O)Nc2ccccn2)cc1` [sulfapyridine] here?
A: > 100 µM
